Entries after “also recorded” stand apart in the source; their conditions may differ.
What was measured:
[1] = target: T1, recombinant soluble epoxide hydrolase (sEH) (Homo sapiens, UniProt P34913); experiment: Inhibition assay with soluble epoxide hydrolase (PHOME); type: biochemical; details: for effect on the activity of recombinant soluble epoxide hydrolase (sEH): 50 μM PHOME
T1 construct: made in house
T1 sequence (P34913 1-555): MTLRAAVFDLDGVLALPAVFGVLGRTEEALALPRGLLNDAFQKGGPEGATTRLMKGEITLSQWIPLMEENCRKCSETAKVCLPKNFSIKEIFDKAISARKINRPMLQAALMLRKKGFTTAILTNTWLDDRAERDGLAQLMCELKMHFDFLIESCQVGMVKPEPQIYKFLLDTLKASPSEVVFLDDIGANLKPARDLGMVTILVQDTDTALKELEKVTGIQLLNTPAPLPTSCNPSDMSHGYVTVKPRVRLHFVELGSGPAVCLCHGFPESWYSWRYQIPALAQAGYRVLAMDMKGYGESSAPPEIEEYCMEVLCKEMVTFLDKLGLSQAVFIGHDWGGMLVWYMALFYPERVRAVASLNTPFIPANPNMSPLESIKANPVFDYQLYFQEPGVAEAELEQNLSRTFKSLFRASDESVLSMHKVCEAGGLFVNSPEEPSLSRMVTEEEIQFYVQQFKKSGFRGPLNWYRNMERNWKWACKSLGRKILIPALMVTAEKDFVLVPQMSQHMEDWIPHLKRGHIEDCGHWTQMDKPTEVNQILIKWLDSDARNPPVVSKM
Experimental: The human recombinant soluble epoxide hydrolase (sEH) was expressed and purified as described before.
Pre-incubation with 0.5 µg/mL of sEH and test compounds or 0.1% (v/v) vehicle was performed in 25 mM Tris-HCl buffer (pH 7.0) containing 0.1 mg/mL bovine serum albumin at room temperature for 10 min. Reaction was initiated with 50 μM PHOME, a non-fluorescent compound that is enzymatically converted into fluorescent 6-methoxy-naphtaldehyde, at room temperature for 60 min. Reactions were stopped with 200 mM ZnSO4 and fluorescence signals were recorded at 330 nm/465 nm (ex/em). If required, a possible fluorescence of test compounds was subtracted from the read-out.

[2] = target: T2, LTA4H (Homo sapiens, UniProt P09960); set-up: made in house; host or cells: Escherichia coli JM101; method as in PMID 24591641; details: previously demonstrated; cited from earlier work
T2 sequence (P09960 1-611): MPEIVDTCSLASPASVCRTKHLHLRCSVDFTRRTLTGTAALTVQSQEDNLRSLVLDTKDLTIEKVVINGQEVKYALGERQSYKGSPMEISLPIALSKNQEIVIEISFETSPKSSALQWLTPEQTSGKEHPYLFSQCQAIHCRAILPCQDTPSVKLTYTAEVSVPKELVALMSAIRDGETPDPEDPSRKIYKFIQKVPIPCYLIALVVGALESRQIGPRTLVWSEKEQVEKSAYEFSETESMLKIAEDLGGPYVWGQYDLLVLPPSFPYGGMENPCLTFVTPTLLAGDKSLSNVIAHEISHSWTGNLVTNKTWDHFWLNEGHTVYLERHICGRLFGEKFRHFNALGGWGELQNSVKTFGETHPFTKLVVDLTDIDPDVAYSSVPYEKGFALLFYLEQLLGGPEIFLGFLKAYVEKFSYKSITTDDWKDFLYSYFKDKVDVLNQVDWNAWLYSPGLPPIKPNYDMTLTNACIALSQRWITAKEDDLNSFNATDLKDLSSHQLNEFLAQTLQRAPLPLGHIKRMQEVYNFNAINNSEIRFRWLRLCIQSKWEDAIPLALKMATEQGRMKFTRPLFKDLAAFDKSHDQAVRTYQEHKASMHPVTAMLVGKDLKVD

[3] = target: T2, LTA4H; experiment: Aminopeptidase assay of LTA4H with the PGP substrate; type: biochemical; set-up: made in house; host or cells: Escherichia coli JM101; details: 800 μM PGP, 0–100 μM inhibitor
Experimental: The reaction was stopped by addition of 150 μL of acetic acid. To detect and quantify released N-terminal proline, incubations with 150 μL of ninhydrin solution (25 mg/mL) were carried out at 100 °C for 45 min. Samples were cooled down and purple-colored ninhydrin conjugates were extracted with 350 μL toluene and the upper phase was transferred to a polypropylene 96-well plate (Greiner Bio-One, Kremsmünster, Austria). All incubations were carried out in triplicates and absorbance was measured at 495 nm using a TECAN Infinite M200 plate reader. Specific peptidase activities were determined based on the standard curve of free L-proline (Figure S10).

Compound	effect on the activity of recombinant soluble epoxide hydrolase (sEH) [1]	effect on PGP cleavage by LTA4H [2]	effect on the activity of soluble epoxide hydrolase (sEH) at 10 µM ([1]; 10 µM inhibitor)	effect on the cleavage of the PGP tripeptide by recombinant LTA4H [3]
Nc1nc(-c2ccc(Cc3ccccc3)cc2)cs1 [ARM1, 4-(4-benzylphenyl) thiazol-2-amine, reference compound]	did not have any effect; also recorded: do not affect	remains unaffected	–	–
Nc1nc(-c2ccc(Cc3ccccc3)cc2)co1 [TTO, 4-(4-benzylphenyl) oxazol-2-amine]	at higher concentrations may affect	–	attenuated	did not influence
Nc1nc(-c2ccc(Cc3ccccc3)cc2)c[se]1 [TTSe, 4-(4-benzylphenyl) selenazol-2-amine]	did not have any effect; also recorded: do not affect	–	–	did not influence

Source: publication PMC10145651, “Modulation of the 5-Lipoxygenase Pathway by Chalcogen-Containing Inhibitors of Leukotriene A4 Hydrolase” (International Journal of Molecular Sciences, 2023)
